According to patent US7507792B2, “MDA-7 proteins and methods of use thereof” (The Trustees of Columbia University In The City of New York, priority 1993, dated 2009):

Columns and labels:
Format in all cases: cell-based, human
wild-type p53 protein = test: Immunoprecipitation of p53 in H0-1 cells; conditions: IFN-β 2000 units/ml, MEZ 10 ng/ml
Protocol: (§1) Immunoprecipitation analyses were performed as described previously (Duigou et al., 1991; Su et al., 1993; Jiang et al., 1994b). […] Cultures were starved of methionine for 1 h at 37° C. in methionine-free medium, cells were concentrated by pelleting and labeled for 1 h (p53) or 4 h (p21 and Actin) at 37° in 1 ml of the same medium with 100 μCi of [^35S] (NEN; Express ^35S). After labeling, the cells were washed twice with ice-cold phosphate-buffered saline and lysed for 1 h on ice by the addition of RIPC (20 mM Tris-base, pH 7.5, 500 mM NaCl, 0.05% Nonidet P-40, 100 μg/ml phenylmethylsulfonyl fluoride and 0.02% sodium azide). The lysate was clarified by centrifugation in an Eppendorf microfuge at 10,000×g for 10 min at 4° C. H0-1 samples containing 4×10^6 counts were incubated with 2 μg of p53 monoclonal antibody (Ab1; PAb421) (Oncogene Sciences), WAF1/CIP1 (C-19) (Santa Cruz Biotechnology) (or MDA-6 peptide-derived) rabbit polyclonal IgG or actin monoclonal antibody (Oncogene Sciences) with rocking at 4° C. for 24 h. Labeled cell lysates were also prepared from F0-1, L0-1, SH-1, WM239, FM516-SV, SW480, MeWo, human skin fibroblasts and Saos-2 cells. Samples containing 4×10^6 counts were incubated with 2 μg of the p53 monoclonal antibody Ab1 (PAb421) or Ab3 (PAb240) (Oncogene Sciences). […]

p21 protein = test: Immunoprecipitation of p21 in H0-1 cells; conditions: IFN-β 2000 units/ml, MEZ 10 ng/ml
Protocol: as §1

HL-525 cells = test: Cell growth (cell counts); conditions: 6 d, 3 nM TPA, 1 μM RA, 400 nM Vit D3
Protocol: Cell counts were determined by hemocytometer chamber counting. Immunofluorescence tests for reactivity with the OKM1 antibody (Ortho Pharmaceutical Corp., Raritan, N.J.) were performed as previously described (Murao et al., 1983).

Row | SMILES | wild-type p53 protein level (wild-type p53 protein; 24 h) | wild-type p53 protein level (wild-type p53 protein; over 48, 72, 96 h) | p21 mRNA and protein (p21 protein; 24 h) | p21 protein level (p21 protein; over 48, 72, 96 h) | reduction in growth (cell numbers) (HL-525 cells) [%]
1 | C=C(C)[C@@]12O[C@@]3(c4ccccc4)O[C@@H]1[C@@H]1[C@@H]4O[C@]4(CO)[C@@H](O)[C@]4(O)C(=O)C(C)=C[C@H]4[C@@]1(O3)[C@H](C)[C@H]2OC(=O)/C=C/C=C/c1ccccc1 [MEZ, mezerein] | no significant change | decreases | induced | increases | 
2 | CC1=C(/C=C/C(C)=C/C=C/C(C)=C/C(=O)O)C(C)(C)CCC1 [RA, trans-retinoic acid] |  |  |  |  | 35
